Data from US12371454B2, “Cyclic peptide compound having Kras inhibitory action” (priority 2019, dated 2025).
Starred links: 1 amine or outer side, 2 acyl side, 3 side chain; linkers in the order of their positions; H or OH if unused. Positions of bridges follow the written chain, without caps; N, C: chain ends. Non-standard residues stand in square brackets, D forms with d. Residues, ends and D or L forms follow the SMILES beside them. *: point of attachment. hPhe(3,5-F2-4-CF3) = N[C@@H](CCc1cc(F)c(C(F)(F)F)c(F)c1)C(=O)O; hPhe(3-Cl-4-CF3) = N[C@@H](CCc1ccc(C(F)(F)F)c(Cl)c1)C(=O)O; Piperazinyl(4-(3-oxetanyl)) = C1OCC1N1CCN(*)CC1; NMePhe(4-CN) = CN[C@@H](Cc1ccc(C#N)cc1)C(=O)O; NMePhe(4-Me) = CN[C@@H](Cc1ccc(C)cc1)C(=O)O; NMedβ3hAla = C[C@H](CC(=O)[*:2])N(C)[*:1]; Phe(3-I) = N[C@@H](Cc1cccc(I)c1)C(=O)O; Phe(2-Me) = Cc1ccccc1C[C@H](N)C(=O)O; NMeCha = CN[C@@H](CC1CCCCC1)C(=O)O; NMeChg = CN[C@H](C(=O)O)C1CCCCC1; Gly(cBu) = N[C@H](C(=O)O)C1CCC1; NMeD = CN[C@@H](CC(=O)O)C(=O)O; NMeL = CN[C@@H](CC(C)C)C(=O)O; NMeNva = CCC[C@H](NC)C(=O)O; NMeV = CN[C@H](C(=O)O)C(C)C; Morpholide = C1CN(*)CCO1; NMeAib = CNC(C)(C)C(=O)O; Piperidide = C1CCN(*)CC1; Pyrrolidide = C1CCN(*)C1; Ac5c = NC1(C(=O)O)CCCC1; NEtG = CCNCC(=O)O; Sar = CNCC(=O)O

Experiments:
[1] = target: T1, Kras and SOS1 (biotin-tagged human Kras loaded with GDP, His-tagged human SOS1) (Homo sapiens, UniProt P01116, G12D); experiment: Protein-protein interaction inhibition between Kras and SOS1 (KrasGl2D-SOS PPI) using AlphaScreen; assay type: binding; conditions: AlphaScreen; biotin-tagged human Kras loaded with GDP, His-tagged human SOS1; read-out: KRAS G12D-SOS PPI IC50
T1 construct: made in house; host or cells: E. coli (stated for Kras only)
Outline: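 Energy transfer from nickel-chelate donor beads bound to His-SOS1 to streptavidin acceptor beads bound to biotin-Kras, expressed in E. coli and loaded with GDP after purification, was monitored. Donors were excited at 680 nm; singlet oxygen reaching acceptors gave emission read at 520-620 nm.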

[2] = system: Human pancreatic cancer cell line AsPC-1; experiment: Measurement of AsPC-1 cell growth inhibition (AsPC-1 CGI); assay type: cell-based; conditions: 96 h
Outline: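 AsPC-1 cells in 15% FBS RPMI-1640 were exposed to test compound for 96 hours at 37° C, with CellTiter-Glo as endpoint.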

T1 sequence (P01116 1-188 isoform P01116-2 G12D): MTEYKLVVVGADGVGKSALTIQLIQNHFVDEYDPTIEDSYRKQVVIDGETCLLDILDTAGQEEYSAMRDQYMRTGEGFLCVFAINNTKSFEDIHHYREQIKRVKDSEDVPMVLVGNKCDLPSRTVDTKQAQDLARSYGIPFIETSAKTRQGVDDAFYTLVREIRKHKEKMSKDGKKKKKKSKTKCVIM

Which IC50 [1] does the source give for `CC[C@H](C)[C@@H]1NC(=O)[C@H](CC(C)C)N(C)C(=O)C[C@@H](C(=O)N2CCCCC2)N(C)C(=O)[C@H](CC(C)C)NC(=O)C(C)(C)N(C)C(=O)[C@H](Cc2ccccc2C)NC(=O)[C@H](Cc2cccc(I)c2)NC(=O)CN(C)C(=O)[C@H](Cc2ccc(C)cc2)N(C)C(=O)CN(C)C(=O)CN(C)C1=O` [Compound 596] ([NMeL]I[Sar][Sar][NMePhe(4-Me)][Sar][Phe(3-I)][Phe(2-Me)][NMeAib]L[NMeD]-Piperidide; lactam N-11) here?
Its IC50 is 34 nM.

And the IC50 [2]?
Its IC50 is over 500 nM.

How did the IC50 [1] turn out when `CC[C@H](C)[C@@H]1NC(=O)[C@H](CC(C)C)N(C)C(=O)C[C@@H](C(=O)N2CCCC2)N(C)C(=O)[C@H](C(C)C)N(C)C(=O)C2(CCCC2)NC(=O)[C@@H]2CCCN2C(=O)[C@H](CCc2ccc(C(F)(F)F)c(Cl)c2)NC(=O)CN(C)C(=O)[C@H](Cc2ccc(C)cc2)N(C)C(=O)CN(C)C(=O)CN(C)C1=O` [Compound 1749] ([NMeL]I[Sar][Sar][NMePhe(4-Me)][Sar][hPhe(3-Cl-4-CF3)]P[Ac5c][NMeV][NMeD]-Pyrrolidide; lactam N-11) was run?
Its IC50 is 0.74 nM.

And the IC50 [2]?
Its IC50 is 100 to 500 nM.

Which IC50 [1] does the source give for `CC(C)C[C@H]1C(=O)N[C@@H](C2CCC2)C(=O)N(C)CC(=O)N(C)CC(=O)N(C)[C@@H](CC2CCCCC2)C(=O)N(C)CC(=O)N[C@@H](CCc2ccc(C(F)(F)F)c(Cl)c2)C(=O)N2CCC[C@H]2C(=O)NC2(CCCC2)C(=O)N(C)[C@@H](C2CCCCC2)C(=O)N(C)[C@H](C(=O)N2CCCC2)CC(=O)N1C` [Compound 1988] ([NMeL][Gly(cBu)][Sar][Sar][NMeCha][Sar][hPhe(3-Cl-4-CF3)]P[Ac5c][NMeChg][NMeD]-Pyrrolidide; lactam N-11) here?
The IC50 was 0.69 nM.

What about the IC50 [2] of the same molecule?
The IC50 was 50 to 100 nM.

For `CC[C@H](C)[C@@H]1NC(=O)[C@H](CC(C)C)N(C)C(=O)C[C@@H](C(=O)N2CCN(C3COC3)CC2)N(C)C(=O)[C@H](C2CCCCC2)N(C)C(=O)C2(CCCC2)NC(=O)[C@@H]2CCCN2C(=O)[C@H](CCc2ccc(C(F)(F)F)c(Cl)c2)NC(=O)CN(C)C(=O)[C@H](CC2CCCCC2)N(C)C(=O)CN(C)C(=O)CN(C)C1=O` [Compound 1284] ([NMeL]I[Sar][Sar][NMeCha][Sar][hPhe(3-Cl-4-CF3)]P[Ac5c][NMeChg][NMeD]-{Piperazinyl(4-(3-oxetanyl))}; lactam N-11), which IC50 [1] is on record?
Its IC50 is 0.69 nM.

What about the IC50 [2] of the same molecule?
The IC50 was 100 to 500 nM.

`CC[C@H](C)[C@@H]1NC(=O)[C@H](CC(C)C)N(C)C(=O)C[C@@H](C(=O)N2CCCCC2)N(C)C(=O)[C@H](C2CCCCC2)N(C)C(=O)C2(CCCC2)NC(=O)[C@@H]2CCCN2C(=O)[C@H](CCc2ccc(C(F)(F)F)c(Cl)c2)NC(=O)CN(C)C(=O)[C@H](CC2CCCCC2)N(C)C(=O)CN(CC)C(=O)CN(C)C1=O` [Compound 1227] ([NMeL]I[Sar][NEtG][NMeCha][Sar][hPhe(3-Cl-4-CF3)]P[Ac5c][NMeChg][NMeD]-Piperidide; lactam N-11) was tested. Which IC50 [1] did it give?
Its IC50 is 1.3 nM.

And the IC50 [2]?
Its IC50 is 100 to 500 nM.

Which IC50 [1] does the source give for `CC[C@H](C)[C@@H]1NC(=O)[C@H](CC(C)C)N(C)C(=O)C[C@@H](C)N(C)C(=O)[C@H](C(C)C)N(C)C(=O)C2(CCCC2)NC(=O)[C@@H]2CCCN2C(=O)[C@H](CCc2ccc(C(F)(F)F)c(Cl)c2)NC(=O)CN(C)C(=O)[C@H](Cc2ccc(C#N)cc2)N(C)C(=O)CN(C)C(=O)CN(C)C1=O` [Compound 888] (cyclo([Ac5c][NMeV][NMedβ3hAla][NMeL]I[Sar][Sar][NMePhe(4-CN)][Sar][hPhe(3-Cl-4-CF3)]P)) here?
Its IC50 is 3.9 nM.

And the IC50 [2]?
The IC50 was 100 to 500 nM.

Which IC50 [1] does the source give for `CC(C)C[C@H]1C(=O)N[C@@H](C(C)C)C(=O)N(C)CC(=O)N(C)CC(=O)N(C)[C@@H](CC2CCCCC2)C(=O)N(C)CC(=O)N[C@@H](CCc2ccc(C(F)(F)F)c(Cl)c2)C(=O)N2CCC[C@H]2C(=O)NC2(CCCC2)C(=O)N(C)[C@@H](C2CCCCC2)C(=O)N(C)[C@H](C(=O)N2CCOCC2)CC(=O)N1C` [Compound 1908] ([NMeL]V[Sar][Sar][NMeCha][Sar][hPhe(3-Cl-4-CF3)]P[Ac5c][NMeChg][NMeD]-Morpholide; lactam N-11) here?
Its IC50 is 0.65 nM.

And the IC50 [2]?
Its IC50 is 50 to 100 nM.

Which IC50 [1] does the source give for `CCC[C@H]1C(=O)N[C@@H]([C@@H](C)CC)C(=O)N(C)CC(=O)N(C)CC(=O)N(C)[C@@H](CC2CCCCC2)C(=O)N(C)CC(=O)N[C@@H](CCc2cc(F)c(C(F)(F)F)c(F)c2)C(=O)N2CCC[C@H]2C(=O)NC2(CCCC2)C(=O)N(C)[C@@H](C2CCCCC2)C(=O)N(C)[C@H](C(=O)N2CCCC2)CC(=O)N1C` [Compound 1253] ([NMeNva]I[Sar][Sar][NMeCha][Sar][hPhe(3,5-F2-4-CF3)]P[Ac5c][NMeChg][NMeD]-Pyrrolidide; lactam N-11) here?
The IC50 was 0.81 nM.

What about the IC50 [2] of the same molecule?
Its IC50 is 20 to 50 nM.
